This is an account of results in patent US20130171278A1 (priority 2010, published 2013).

One experiment concerns scopolamine-treated rat. In words: 8-arm radial maze acquisition test in scopolamine-treated animals. The format is in vivo. As for the experimental part: (§1) Ethology test such as passive avoidance test and radial maze test were performed for Artemisia apiaceae. In the case of passive avoidance test, the control group, the scopolamine-treated group (3 mg/kg, i.p.), the tacrine-treated group after scopolamine treatment (10 mg/kg p.o.) and the Artemisia apiaceae extract-treated group were shocked. After 24 hrs, entering time to dark chamber (step-through latency, STL) was measured. […] Furthermore, in order to verify enhancement in more specific learning ability, acquisition test in which an error frequency is measured was performed using 8-arm radial maze.

Experiment [1] deals with scopolamine-induced memory deficit rat model. In words: Passive avoidance test in scopolamine-induced memory deficit model. The format is in vivo. To be noted: 24 hrs after shock. As for the experimental part: as §1

As to `Nc1c2c(nc3ccccc13)CCCC2` [tacrine], in the experiment on scopolamine-treated rat, the “error frequency compared with the scopolamine-treated group” value is “significantly decreased error frequency”. The error frequency in the experiment with scopolamine-treated rat (normal group 1.6, negative control group 3.25) worked out at 1.75. Moreover, the “entering time into the dark chamber (step-through latency, STL)” value in experiment [1] (tacrine 10 mg/kg p.o. after scopolamine treatment) is listed as “significantly increased entering time into the dark chamber”.
For the compound `CN1[C@@H]2C[C@@H](OC(=O)[C@H](CO)c3ccccc3)C[C@H]1[C@@H]1O[C@@H]12` [scopolamine], in experiment [1] (scopolamine 3 mg/kg i.p., compared with the control group), the “entering time into the dark chamber (step-through latency, STL)” value was “significantly decreased entering time into the dark chamber”.
